Data from patent US11406648B2, “C17-heteroaryl derivatives of oleanolic acid and methods of use thereof” (REATA PHARMACEUTICALS, INC., priority 2012, dated 2022).

System: RAW264.7 mouse macrophages
Test: Suppression of IFNγ-induced NO production (Nitric Oxide Production and Cell Viability Assay)
Format: cell-based
Conditions: IFNγ-induced NO production, Griess reagent, normalized to cell viability, 2 h pre-treatment, IFNγ 24 h
Procedure: Assay results for the suppression of IFNγ-induced NO production are shown for several of the compounds of the present invention in Table 1 below. […] Details regarding this assay are provided in the Examples section below. Nitric Oxide Production and Cell Viability Assay. RAW264.7 mouse macrophages were plated in 96-well plates at 30,000 cells/well in triplicate in RPMI1640+0.5% FBS and incubated at 37° C. with 5% CO2. On the next day, cells were pre-treated with DMSO or drug (0-200 nM dose range) for 2 hours, and then treated with recombinant mouse IFNγ (R&D Systems) for 24 hours. Nitric Oxide concentration in media was determined using the Griess reagent system (Promega). Cell viability was determined using WST-1 reagent (Roche). IC50 values were determined based on the suppression of IFNγ induced Nitric Oxide production normalized to cell viability.

SMILES	IC50 [nM]
Cc1nnc([C@]23CCC(C)(C)C[C@H]2[C@H]2C(=O)C=C4[C@@]5(C)C=C(C#N)C(=O)C(C)(C)[C@@H]5CC[C@@]4(C)[C@]2(C)CC3)o1 [TX63384]	2
CCCc1nnc([C@]23CCC(C)(C)C[C@H]2[C@H]2C(=O)C=C4[C@@]5(C)C=C(C#N)C(=O)C(C)(C)[C@@H]5CC[C@@]4(C)[C@]2(C)CC3)o1 [TX63475]	5.7
CC(C)c1nnc([C@]23CCC(C)(C)C[C@H]2[C@H]2C(=O)C=C4[C@@]5(C)C=C(C#N)C(=O)C(C)(C)[C@@H]5CC[C@@]4(C)[C@]2(C)CC3)o1 [TX63476]	5.4
CC1(C)CC[C@]2(c3nnc(C4CC4)o3)CC[C@]3(C)[C@H](C(=O)C=C4[C@@]5(C)C=C(C#N)C(=O)C(C)(C)[C@@H]5CC[C@]43C)[C@@H]2C1 [TX63477]	3.3
COCc1nnc([C@]23CCC(C)(C)C[C@H]2[C@H]2C(=O)C=C4[C@@]5(C)C=C(C#N)C(=O)C(C)(C)[C@@H]5CC[C@@]4(C)[C@]2(C)CC3)o1 [TX63478]	1.8
CC1(C)CC[C@]2(c3nnco3)CC[C@]3(C)[C@H](C(=O)C=C4[C@@]5(C)C=C(C#N)C(=O)C(C)(C)[C@@H]5CC[C@]43C)[C@@H]2C1 [TX63479]	1.1
Cc1noc([C@]23CCC(C)(C)C[C@H]2[C@H]2C(=O)C=C4[C@@]5(C)C=C(C#N)C(=O)C(C)(C)[C@@H]5CC[C@@]4(C)[C@]2(C)CC3)n1 [TX63501]	1
Cc1nnc(C[C@]23CCC(C)(C)C[C@H]2[C@H]2C(=O)C=C4[C@@]5(C)C=C(C#N)C(=O)C(C)(C)[C@@H]5CC[C@@]4(C)[C@]2(C)CC3)o1 [TX63593]	1.7
